Earlier results on six compounds are cited in patent US20120149888A1, “SYNTHESIS OF ARA-2'-O-METHYL-NUCLEOSIDES, CORRESPONDING PHOSPHORAMIDITES AND OLIGONUCLEOTIDES INCORPORATING NOVEL MODIFICATIONS FOR BIOLOGICAL APPLICATION IN THERAPEUCTICS, DIAGNOSTICS, G- TETRAD FORMING OLIGONUCLEOTIDES AND APTAMERS” (priority 2009, published 2012).

“Also recorded” adds a separate entry of the source. Like-named read-outs stand apart in the source and are kept apart here.

For series [1], the system named is Ehrlich ascites (EAC-R2). The settings on record: 6-Methyl thiopurine ribonucleoside-resistant Ehrlich ascites (EAC-R2).
Series [2] relates to Ehrlich ascites (ETGR11). Conditions: Thioguanine-resistant Ehrlich ascites (ETGR11).
Series [3] deals with L1210 line resistant to MGGH. The settings on record: in vivo.
Series [4] relates to nucleoside carrier-dependent transport. The settings on record: in vitro.
In series [5] the test system is L1210/MP(III). Conditions: mouse, in vivo.
The test system of series [6] is AKR/r-AzCdR. The settings on record: mouse, in vivo.
Series [7] concerns equilibrative NBMPR-sensitive nucleoside transporter (es). Conditions: growth-inhibitory concentrations.
In series [8] the test system is Raji Burkitt's lymphoma. The settings on record: rat, in vivo.
Series [9] deals with Sarcoma 180. The settings on record: in vivo.
The subject of series [10] is AKR/r-AzCR. Conditions: mouse, in vivo.
Series [11] relates to P815/FU. Conditions: in vivo.
In series [12] the test system is L1210/C95. The settings on record: in vivo.
Series [13] deals with Raji leukemia. The settings on record: mouse, in vivo.
Series [14] deals with hydroxyurea-, vincristine-, VLB-, TSC-, cortisone- and MGGH-resistant mouse leukemias.
In series [15] the test system is human erythroleukemia cell line (K562).
The subject of series [16] is L1210/MP. Conditions: 6-Mercaptopurine-resistant L1210/MP.
The conditions of series [17]: in vivo.
The test system of series [18] is T-lymphoblasts, B-lymphoblasts.
Series [19] addresses purine nucleoside phosphorylase (PNP) (Homo sapiens, UniProt P00491).
The subject of series [20] is P815. The settings on record: 1β-D-Arabinofuranosylcytosine-resistant P815.
The subject of series [21] is L1210/CA. Conditions: 1β-D-Arabinofuranosylcytosine-resistant L1210/CA.
Series [22] concerns L1210/ara-C. Conditions: L1210/ara-C (Schabel et al., 1971).
Series [23] relates to ara-C-resistant neoplasms. Conditions: several other ara-C-resistant neoplasms.
Series [24] relates to explants of intact rat colonic mucosa.

Sequence of purine nucleoside phosphorylase (PNP) (P00491 whole entry, species assumed): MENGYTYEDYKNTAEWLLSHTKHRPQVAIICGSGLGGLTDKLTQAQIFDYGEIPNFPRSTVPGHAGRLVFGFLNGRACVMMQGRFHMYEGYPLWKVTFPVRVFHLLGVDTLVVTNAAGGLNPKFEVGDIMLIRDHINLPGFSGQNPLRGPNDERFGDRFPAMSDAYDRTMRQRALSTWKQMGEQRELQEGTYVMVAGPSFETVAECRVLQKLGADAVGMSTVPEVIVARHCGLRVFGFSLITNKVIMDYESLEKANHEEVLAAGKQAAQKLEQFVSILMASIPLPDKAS

`Sc1ncnc2nc[nH]c12` [6-Mercaptopurine]: the “Response to chemotherapeutic drugs: Cross-resistant” value is 6-Mercaptopurine^b in series [1], “partially cross-resistant” in series [1] (listed as 6-MP) and 6-Mercaptopurine in series [2].
Consider `Nc1ccn([C@@H]2O[C@H](CO)[C@@H](O)[C@@H]2O)c(=O)n1` [Ara-C, 1-β-D-Arabinofuranosylcytosine], for which the “response of MGGH-resistant L1210 line to the drug” value in series [3] is given as “collaterally sensitive”. For the same compound, in [4], the “cellular sensitivity in presence of nitrobenzylmercaptopurine riboside and dipyridamol” value is “reduced strongly”. The “Response to chemotherapeutic drugs: Same as parent line” value (from here on “Response … as parent line”) in [5] is on record as “retained sensitivity; also recorded: Ara-C”; in series [9] it was “Ara-C”; in series [11] it was “retained the same sensitivity; also recorded: Ara-C”. For the same compound, the “Response to chemotherapeutic drugs: Cross-resistant” value in [6] and in [10] was “cross-resistant; also recorded: Ara-C” each time. The expression of es result in series [7] is recorded as “no significant increase”. In addition, the mean survival time is 13.2 days in [8] and 34.2 days in series [13]. Moreover, the “response of L1210/C95 to the drug” value in series [12] is “sensitive”. Besides, the “animals that survived (>80 days)” value in series [13] is “none”. Further, the “activity against drug-resistant mouse leukemias” value in [14] is recorded as “active”. Further, the “resistance of K562R to ara-C compared with K562S” value in series [15] (3H-dThd incorporation, MTT dye reduction and clonogenicity) is “approximately 15 fold”. Further, the “ara-CTP accumulated by K562S versus K562R” value in [15] (4-h exposure, 10 microM) was “seven times more”. The “more ara-C incorporated into DNA by K562S versus K562R” value in series [15] (4-h exposure, 10 microM) is “approximately 250%”.
For the compound `CN(C)/N=N/c1[nH]cnc1C(N)=O` [DIC], in series [16], the “Response … as parent line” value is “DIC”.
Regarding `COc1nc(N)nc2c1ncn2[C@@H]1O[C@H](CO)[C@@H](O)[C@@H]1O` [Nelarabine], the “dose toxicity in the clinical trials” value in series [17] is “neurotoxicity”.
For the compound `Nc1nc2c(ncn2[C@@H]2O[C@H](CO)[C@@H](O)[C@@H]2O)c(=O)[nH]1` [araG, N-9-[β-D-Arabinofuranosyl]guanine], the “efficiency in T-lymphoblasts compared to B-lymphoblasts” value in series [18] is recorded as “higher efficiency”. The “degradation by purine nucleoside phosphorylase (PNP)” value in series [19] is recorded as “relatively resistant”.
As to `NC(=O)NO` [hydroxyurea], in [7], the expression of es result is reported as “increases”. Also, the “Response … as parent line” value was “Hudroxyurea” in [20], “Hydroxyurea” in [21] and “Hydroxyurea” in series [22]. Moreover, in series [23], the “cross-resistance of ara-C-resistant neoplasms to the drug” value is “no cross-resistance”. Besides, the “incorporation of tritiated TdR into DNA” value in [24] is “reduced”.
